Where two headings read alike, the source gives them in different places. Where only a bound is given, the exact number is not on record here.

This data set relates to mites. Description: Mite killing efficacy test with an in vitro model. The conditions noted are these: 30 µM drug solution. The protocol:
Mite collection: Live mites were gently picked up from a cage box with cotton swabs or small tweezers, 17-26 live mites per group.
Drug treatment and detection method: 100 µL of a drug solution with a different concentration (drug solution prepared by 3% DMSO solution + 97% water and having a target final concentration of 30 µM) was aspirated with a pipette and added to a 24-well plate for each group, ensuring full contact between the drug and the mites. The mites were separately incubated at normal temperature for 5 min, transferred from each plate to another dry 24-well plate with the top sealed, and air-dried for about 1 h. Mite actions were observed, and the number of dead mites/the total number of mites was recorded. Then, the 24-well plate containing the mites was cultured at room temperature and relatively high humidity. The number of dead mites/the total number of mites was counted separately after 1 h, 2 h, 4 h, 6 h, 8 h, 22 h, and 24 h (time points after drug addition), and mite mortality rates were calculated. The project ended 24 h after drug addition.
At a corresponding time point, a mite mortality rate greater than or equal to 90% is denoted as "+++", a mite mortality rate less than 90% and greater than or equal to 50% is denoted as "++", and a mite mortality rate less than 50% is denoted as "+".

Where [1] appears, read: 4 h after drug addition, read-out: Mite Mortality Rate 4 h.
Where [2] appears, read: 24 h after drug addition, read-out: Mite Mortality Rate 24 h.

With `Cc1cc(C2=NOC(c3cc(Cl)cc(OC(F)(F)F)c3)(C(F)(F)F)C2)ccc1C(=O)NCC(=O)NC1(C(F)(F)F)CC1` (stereo not drawn) [Example 037, 4-(5-(3-chloro-5-(trifluoromethoxy)phenyl)-5-(trifluoromethyl)-4,5-dihydroisoxazol-3-yl)-2-met hyl-N-(2-oxo-2-((1-(trifluoromethyl)cyclopropyl)amino)ethyl)benzamide], the mortality (usually the percentage killed) at 30 µM is, setting by setting: under setting [1], 50 to 90%; under setting [2], over 90%.

`Cc1cc(C2=NO[C@](c3cc(Cl)cc(Cl)c3)(C(F)(F)F)C2)ccc1C(=O)NCC(=O)NC1(C(F)(F)F)CC1` [Example 012, (R)-4-(5-(3,5-dichlorophenyl)-5-(trifluoromethyl)-4,5-dihydroisoxazol-3-yl)-2-methyl-N-(2-oxo-2-((1-(trifluoromethyl)cyclopropyl)amino)ethyl)benzamide]: the mortality at 30 µM was under 50% under setting [1] and under 50% under setting [2].

Turning to `Cc1cc(C2=NOC(c3cc(Cl)cc(Cl)c3Cl)(C(F)(F)F)C2)ccc1C(=O)NCC(=O)NC1(C(F)(F)F)CC1` (stereo not drawn) [Example 020, 2-methyl-N-(2-oxo-2-((1-(trifluoromethyl)cyclopropyl)amino)ethyl)-4-(5-(2,3,5-trichlorophenyl) -5-(trifluoromethyl)-4,5-dihydroisoxazol-3-yl)benzamide], the mortality at 30 µM under setting [1] is under 50% and the mortality at 30 µM under setting [2] lay within 50 to 90%.

As to `Cc1cc(C2=NOC(c3cc(F)c(Cl)c(Cl)c3)(C(F)(F)F)C2)ccc1C(=O)NCC(=O)NC1(C(F)(F)F)CC1` (stereo not drawn) [Example 028, 4-(5-(3,4-dichloro-5-fluorophenyl)-5-(trifluoromethyl)-4,5-dihydroisoxazol-3-yl)-2-methyl-N-(2-oxo-2-((1-(trifluoromethyl)cyclopropyl)amino)ethyl)benzamide], the mortality at 30 µM was 50 to 90% under setting [1] and over 90% under setting [2].

On to `Cc1cc(C2=NOC(c3cc(Cl)cc(Cl)c3)(C(F)(F)F)C2)ccc1C(=O)NCC(=O)N1CC(F)(C#N)C1` (stereo not drawn) [Example 021, N-(2-(3-cyano-3-fluoroazetidin-1-yl)-2-oxoethyl)-4-(5-(3,5-dichlorophenyl)-5-(trifluoromethyl)-4,5-dihydroisoxazol-3-yl)-2-methylbenzamide], for which the mortality at 30 µM is under 50% under setting [1] and under 50% under setting [2].

Take `Cc1cc(C2=NOC(c3cc(Cl)cc(Cl)c3F)(C(F)(F)F)C2)ccc1C(=O)NCC(=O)NC1(C(F)(F)F)CC1` (stereo not drawn) [Example 019, 4-(5-(3,5-dichloro-2-fluorophenyl)-5-(trifluoromethyl)-4,5-dihydroisoxazol-3-yl)-2-methyl-N-(2-oxo-2-((1-(trifluoromethyl)cyclopropyl)amino)ethyl)benzamide]: the mortality at 30 µM is 50 to 90% under setting [1] and over 90% under setting [2].

Regarding `Cc1cc(Cl)cc(C2(C(F)(F)F)CC(c3ccc(C(=O)NCC(=O)NC4(C(F)(F)F)CC4)c(C)c3)=NO2)c1` (stereo not drawn) [Example 032, 4-(5-(3-chloro-5-methylphenyl)-5-(trifluoromethyl)-4,5-dihydroisoxazol-3-yl)-2-methyl-N-(2-oxo-2-((1-(trifluoromethyl)cyclopropyl)amino)ethyl)benzamide], the mortality at 30 µM was under 50% under setting [1] and over 90% under setting [2].

As for `Cc1cc(C2=NOC(c3cc(Cl)c(Cl)c(Cl)c3)(C(F)(F)F)C2)ccc1C(=O)NCC(=O)N1CC(F)(CF)C1` (stereo not drawn) [Example 003, N-(2-(3-fluoro-3-(fluoromethyl)azetidin-1-yl)-2-oxoethyl)-2-methyl-4-(5-(3,4,5-trichlorophenyl) -5-(trifluoromethyl)-4,5-dihydroisoxazol-3-yl)benzamide], the mortality at 30 µM reads like this: under setting [1], under 50%; under setting [2], over 90%.

Consider `Cc1cc(C2=NOC(c3cc(Cl)cc(C(F)(F)F)c3)(C(F)(F)F)C2)ccc1C(=O)NCC(=O)N1CC(F)(CF)C1` (stereo not drawn) [Example 013, 4-(5-(3-chloro-5-(trifluoromethyl)phenyl)-5-(trifluoromethyl)-4,5-dihydroisoxazol-3-yl)-N-(2-(3-fluoro-3-(fluoromethyl)azetidin-1-yl)-2-oxoethyl)-2-methylbenzamide], for which the mortality at 30 µM under setting [1] is over 90% and the mortality at 30 µM under setting [2] was over 90%.

On to `COc1cc(Cl)cc(C2(C(F)(F)F)CC(c3ccc(C(=O)NCC(=O)NC4(C(F)(F)F)CC4)c(C)c3)=NO2)c1` (stereo not drawn) [Example 033, 4-(5-(3-chloro-5-methoxyphenyl)-5-(trifluoromethyl)-4,5-dihydroisoxazol-3-yl)-2-methyl-N-(2-oxo-2-((1-(trifluoromethyl)cyclopropyl)amino)ethyl)benzamide], for which the mortality at 30 µM by setting is: under setting [1], under 50%; under setting [2], over 90%.

Take `Cc1cc(C2=NOC(c3cc(F)cc(C(F)(F)F)c3)(C(F)(F)F)C2)ccc1C(=O)NCC(=O)NC1(C(F)(F)F)CC1` (stereo not drawn) [Example 031, 4-(5-(3-fluoro-5-(trifluoromethyl)phenyl)-5-(trifluoromethyl)-4,5-dihydroisoxazol-3-yl)-2-methy 1-N-(2-oxo-2-((1-(trifluoromethyl)cyclopropyl)amino)ethyl)benzamide]: the “Mite Mortality Rate 4 h” value (4 h after drug addition) is “+++ (a mite mortality rate greater than or equal to 90% is denoted as "+++")”. The “Mite Mortality Rate 24 h” value (24 h after drug addition) is “+++ (a mite mortality rate greater than or equal to 90% is denoted as "+++")”.

`Cc1cc(C2=NOC(c3cc(Cl)cc(Cl)c3)(C(F)(F)F)C2)ccc1C(=O)N[C@@H](C)C(=O)NC1(C(F)(F)F)CC1` (stereo partly drawn) [Example 036, 4-(5-(3,5-dichlorophenyl)-5-(trifluoromethyl)-4,5-dihydroisoxazol-3-yl)-2-methyl-N-((S)-1-oxo-1-((1-(trifluoromethyl)cyclopropyl)amino)propan-2-yl)benzamide]: the mortality at 30 µM is, setting by setting: under setting [1], under 50%; under setting [2], under 50%.

Regarding `Cc1cc(C2=NOC(c3cc(Cl)c(F)c(Cl)c3)(C(F)(F)F)C2)ccc1C(=O)NCC(=O)N1CC(F)(CF)C1` (stereo not drawn) [Example 005, 4-(5-(3,5-dichloro-4-fluorophenyl)-5-(trifluoromethyl)-4,5-dihydroisoxazol-3-yl)-N-(2-(3-fluoro-3-(fluoromethyl)azetidin-1-yl)-2-oxoethyl)-2-methylbenzamide], the mortality at 30 µM reads like this: under setting [1], 50 to 90%; under setting [2], over 90%.

Regarding `Cc1cc(C2=NOC(c3cc(Cl)cc(Cl)c3)(C(F)(F)F)C2)ccc1C(=O)NCC1(NCC(F)(F)F)COC1` (stereo not drawn) [Example 015], the “Mite Mortality Rate 4 h” value (4 h after drug addition) is given as “+ (a mite mortality rate less than 50% is denoted as "+")”. Also, the “Mite Mortality Rate 24 h” value (24 h after drug addition) was “+ (a mite mortality rate less than 50% is denoted as "+")”.

As for `Cc1cc(C2=NOC(c3cc(Cl)cc(Cl)c3)(C(F)(F)F)C2)ccc1C(=O)NCC(=O)NC1(C(F)(F)F)COC1` (stereo not drawn) [Example 002, 4-(5-(3,5-dichlorophenyl)-5-(trifluoromethyl)-4,5-dihydroisoxazol-3-yl)-2-methyl-N-(2-oxo-2-((3-(trifluoromethyl)oxetan-3-yl)amino)ethyl)benzamide], the mortality at 30 µM is, setting by setting: under setting [1], under 50%; under setting [2], over 90%.

Take `Cc1cc(C2=NOC(c3cc(Cl)c(Cl)c(Cl)c3)(C(F)(F)F)C2)ccc1C(=O)NCC(=O)NC1(C(F)(F)F)CC1` (stereo not drawn) [Example 004, 2-methyl-N-(2-oxo-2-((1-(trifluoromethyl)cyclopropyl)amino)ethyl)-4-(5-(3,4,5-trichlorophenyl) -5-(trifluoromethyl)-4,5-dihydroisoxazol-3-yl)benzamide]: the mortality at 30 µM is under 50% under setting [1] and over 90% under setting [2].

Take `Cc1cc(C2=NOC(c3cc(Cl)cc(Cl)c3)(C(F)(F)F)C2)ccc1C(=O)NCC1(NCC(F)(F)F)CC1` (stereo not drawn) [Example 017]: the “Mite Mortality Rate 4 h” value (4 h after drug addition) is “+ (a mite mortality rate less than 50% is denoted as "+")”. In addition, where the note is “24 h after drug addition”, the “Mite Mortality Rate 24 h” value is “++ (a mite mortality rate less than 90% and greater than or equal to 50% is denoted as "++")”.

Consider `Cc1cc(C2=NOC(c3cc(Cl)cc(Cl)c3)(C(F)(F)F)C2)c(F)cc1C(=O)NCC(=O)NC1CC1` (stereo not drawn) [Example 041, N-(2-(cyclopropylamino)-2-oxoethyl)-4-(5-(3,5-dichlorophenyl)-5-(trifluoromethyl)-4,5-dihydroisoxazol-3-yl)-5-fluoro-2-methylbenzamide], for which the mortality at 30 µM by setting is: under setting [1], over 90%; under setting [2], over 90%.
